In patent publication US20060188485A1, “Autologous self-tolerance inducing cells of monocytic origin and their use in pharmaceutical preparations” (priority 2003, published 2006):

Test system: PHA-stimulated lymphocytes
Experiment: Mixed lymphocyte culture with PHA-stimulated lymphocytes, 3[H]-thymidine incorporation
Type: cell-based, human
Settings: 2 μmol 1-MT
Protocol: In order to clarify, whether the inhibitor of the enzyme indolamine-2,3-dioxygenase (IDO) 1-methyltryptophane (1-MT) influences the suppressor function of the TAIC generated in the “Mo” and “Mo+Ly” set ups (see Example 4), a variety of mixed lymphocyte cultures (MLC) with PHA (phytohaemagglutinine) stimulated T-cells in the presence and in the absence of 1-MT were established.
In these mixed lymphocyte cultures 50.000 lymphocytes with 2 μg PHA were transferred into the wells of a 96-well-plate, followed by a proliferation period over 144 hours (indicated as “PhaLy”). Lymphocytes only cultivated in medium without addition of PHA were run as a further control (indicated as “Ly”). […]
After 144 hours cultivation, all controls or co-cultures were further cultivated for 24 hours in the presence of ^3[H]-thymidine (“pulsed”) and thereafter the amount of radioactively labeled thymidine incorporated was determined as counts per minute (cpm), see FIG. 4. In this arrangement, the amount of the radio activity determined is a measure for the amount of labeled thymidine incorporated into the DNA, and therefore a measure for the proliferation rate of the lymphocytes. […]

## Cn1cc(C[C@H](N)C(=O)O)c2ccccc21 [1-MT, 1-methyltryptophane]
  influence of 1-MT on the suppressor function of the TAIC: increases the suppressor function of the TAIC synergistically
Listed as 1-methyltryptophane
  influence of 1-MT on the suppressor function of the TAIC: no influence
